Reference: patent US20160067265A1, “Abiraterone Acetate Formulation” (ICEUTICA INC., priority 2013, published 2016)
Blank lines part the entries; values can stand above or below the molecule they belong to.

How the values were obtained:
[1] = Particle size distribution by light scattering (Malvern Mastersizer 2000), Example 1; type: physicochemical; conditions: volume statistics
From the text: Abiraterone acetate drug substance was obtained from Hangzhao Dayangchem Co., Ltd.; Hangzhao City, P.R. China.

[2] = Comparative capsule dissolution, 10 mmol phosphate buffer pH 6 with 0.1% SDS, Example 2; type: physicochemical; conditions: pH 6 phosphate buffer, 37° C.
Protocol: Also, 250 mg of unmilled abiraterone acetate was hand filled into similar capsules. Dissolution profiles were measured in triplicate using a Varian VK7025 dissolution apparatus fitted with (6) 1000 mL vessels, with detection performed in a Varian UV-Vis Spectrophotometer at 270 nm. Each vessel contained 900 mL dissolution media consisting of 10 mmol phosphate buffer at pH 6 with 0.1% SDS added. Experiments were conducted at 37° C. The hard gelatin capsules were fitted inside spiral sinkers before commencing the dissolution experiments.

[3] = Accelerated stability, 4 hrs at 80° C., total impurities; conditions: after 4 hours at 80° C.
Protocol: As part of the analysis of impurity growth, the impact on impurity level of various excipients useful for tablet preparation was examined by blending the DPI with various excipients and heating for 4 hours at 80° C.

[4] = Particle size analysis (Malvern Mastersizer 3000), Example 4; type: physicochemical; conditions: volume statistics, in 0.1% PVP
Protocol: This cycle was continued until the total sonication time reached one minute. […] The sample was then allowed to stir for 5 minutes prior to taking measurements. Data from the final measurements are presented in Table 1 and depicted graphically in FIG. 3. For comparison, the particle size distribution of unmilled abiraterone acetate (raw drug substance) was also determined. […] The sample was then allowed to stir for 5 minutes prior to taking measurements. The data from these measurements are presented in Table 1 and depicted graphically in FIG. 3. […] No fine particle abiraterone acetate was measured in the unmilled drug sample. [table]

D10 [1]: 16 μm
D50 [1]: 37 μm
D90 [1]: 70 μm
average particle size [1]: approximately 40 μm
% dissolved after one hour [2]: approximately 10%
Structure (SMILES): CC(=O)O[C@H]1CC[C@@]2(C)C(=CC[C@@H]3[C@@H]2CC[C@]2(C)C(c4cccnc4)=CC[C@@H]32)C1 [unmilled abiraterone acetate, Abiraterone acetate]

degradation [3]: essentially no degradation
Structure (SMILES): CC(=O)O[C@H]1CC[C@@]2(C)C(=CC[C@@H]3[C@@H]2CC[C@]2(C)C(c4cccnc4)=CC[C@@H]32)C1 [API prior to size reduction, Abiraterone acetate]

D4,3 [4]: 28.1 μm
D10 [4]: 8.18 μm
D50 [4]: 21.8 μm
D90 [4]: 47.3 μm
Structure (SMILES): CC(=O)O[C@H]1CC[C@@]2(C)C(=CC[C@@H]3[C@@H]2CC[C@]2(C)C(c4cccnc4)=CC[C@@H]32)C1 [Unmilled, Abiraterone acetate]
